US5430154A, “2-(4-piperidinyl)-1H-pyrido[4,3-b]-indol-1-ones and related compounds” (Hoechst-Roussel Pharmaceuticals Inc., priority 1993, dated 1995)
Like-named read-outs stand apart in the source and are kept apart here.

Legend:
[1] = test system: apomorphine-induced climbing; assay: climbing mice assay (antagonism of apomorphine-induced climbing; antipsychotic activity); format: in vivo, CK-1 male mice; conditions: Mus musculus, ip, read-out: Antipsychotic Activity ED50
Experimental: The subject CK-1 male mice (23-27 grams) are group-housed under standard laboratory conditions. The mice are individually placed in wire mesh stick cages (4"×4" by 10") and are allowed one hour for adaptation and exploration of the new environment. […] For evaluation of climbing, 3 readings are taken at 10, 20 and 30 minutes after apomorphine administration according to the following scale: Mice consistently climbing before the injection of apormorphine are discarded. With full-developed apomorphine climbing, the animals are hanging onto the cage wails, rather motionless, over longer periods of time. By contrast, climbs due to mere motor stimulation usually only last a few seconds. The climbing scores are individually totaled (maximal score; 6 per mouse over 3 readings) and the total score of the control group (vehicle intraperitioneally-apomorphine subcutaneously) is set to 100%.

[2] = test system: apomorphine-induced stereotypy; assay: antagonism of apomorphine-induced stereotypy; format: in vivo, male Wistar rats; conditions: apomorphine 1.5 mg/kg s.c., rats
Experimental: Antagonism of apomorphine-induced stereotypy is a property of many antipsychotics. […] Antagonism of apomorphine-induced stereotypy of the present 2-(4-piperidinyl)-1H-pyrido[4,3-b]indol-1-ones is determined by methods similar to those described by N. E. Anden, et al., J. Pharma.
Drugs are prepared using distilled water and, if insoluble, a suitable surfactant is added. The route of administration may be varied and the dosage volume is 10 ml/kg. For a primary screen, a group size of six is used. Drug is administered one hour prior to scoring and the animals are placed in individual clear plastic cages (24×14×13 cm). The control group receives vehicle. Apomorphine hydrochloride solution is prepared at a concentration of 1.5 mg/10 ml in a 0.03% ascorbic acid stock solution (30 mg of ascorbic acid in 100 ml of 1% saline) to increase the stability of the apomorphine hydrochloride while in solution. […] Fifty minutes after drug dosing, stereotypic behavior is noted. Stereotypic activity is defined as sniffing, licking or chewing behavior that occurs in a repetitive manner and is rated as follows: Constant sniffing, licking or chewing without interruption; the animal is considered protected if this behavior is interrupted.
The percent effectiveness of a drug is determined by the number of animals protected in each group.
A dose-response is run in the same manner as a primary screen except that a group size of 10 is used and the animals are dosed in a randomized manner. One group receives vehicle. ED50 for stereotypy are calculated by means of probit analysis.

[3] = 30 min before apomorphine 1.5 mg/kg s.c., mice, linear regression

| SMILES | ED50 [1, 3] [mg/kg] | % Inhibition of Apomorphine-Induced Stereotypy ([2]; dose 24 mg/kg ip) [%] | ED50 [1] [mg/kg] | % Inhibition of Apomorphine-Induced Stereotypy ([2]; dose 0.2 mg/kg ip) [%] | % Inhibition of Apomorphine-Induced Stereotypy ([2]; dose 38 mg/kg ip) [%] |
| --- | --- | --- | --- | --- | --- |
| Cl.Cn1c2c(c3ccccc31)C(=O)N(C1CCN(Cc3ccccc3)CC1)CC2 [5-Methyl-2-[1-(phenylmethyl)-4-piperidinyl]-2,3,4,5-tetrahydro-1H-pyrido[4,3-b]-indole-1-one hydrochloride] | 4.6 | 50 |  |  |  |
| O=C(CCCN1CCC(O)(c2ccc(Cl)cc2)CC1)c1ccc(F)cc1 [haloperidol] |  |  | 0.14 | 50 |  |
| CSc1ccc2c(c1)N(CCC1CCCCN1C)c1ccccc1S2 (stereo not drawn) [thioridazine] | 3.6 |  |  |  | 50 |
